Measurements as given in BindingDB's records for doi:10.1016/s0960-894x(01)00229-3 (Peking University, 2001).

Experiment: Inhibitory activity against secretory Phospholipase A2 (s-PLA2) of Naja naja

Row | Structure (SMILES) | IC50 [µM]
1 | COc1ccc2nc(Oc3ccccc3)cc(C(N)=O)c2c1 [6-Methoxy-2-phenoxy-quinoline-4-carboxylic acid amide] | 10
2 | COc1ccc2nc(Oc3ccccc3)cc(CC(N)=O)c2c1 [2-(6-Methoxy-2-phenoxy-quinolin-4-yl)-acetamide] | 1
